Test results reported in patent US8008351B2, “Methods for prophylaxis or treatment of conditions associated with cortical spreading depression” (UCB Pharma GmbH, priority 2004, dated 2011).
“Also recorded” adds a separate entry of the source.

What was measured:
[1] = test system: rat model of migraine (Cortical Spreading Depression, CSD); assay: Cortical spreading depression (CSD) rat model of migraine: number of KCl-induced direct current (DC) potentials; format: in vivo, rat (Wistar); details: for Number of DC: n = 10, mean ± SD
Description: (§1) All animal experiments were carried out according to the National Institute of Health (NIH) guidelines for the care and use of laboratory animals, and approved by the Ethical Committee of the National Laboratory Animal Center, Kuopio, Finland. Altogether 77 adult male Wistar rats, purchased from Harlan, Netherlands, and weighing 250-350 g were used for the experiment. Animals were housed at a standard temperature (22±1° C.) and in a light-controlled environment (lights on from 7 am to 9 pm) with ad libitum access to food and water. Animals were grouped as follows: • 15 rats treated with SPM 927 (3 mg/kg; i.p.) 30 min before the CSD episode • 15 rats treated with SPM 927 (10 mg/kg; i.p.) 30 min before the CSD episode • 15 rats treated with SPM 927 (30 mg/kg; i.p.) 30 min before the CSD episode • 15 rats treated with Valproic acid (250 mg/kg; i.p.) 30 min before the CSD episode • 15 rats treated with Vehicle (2 ml/kg; i.p.) 30 min before CSD episode • 2 sham rats without CSD episode (topical NaCl application) and without any treatment Subgroups: • 10 rats to DC-potential, CBF, and blood pH, pO2, pCO2, glucose and mean arterial pressure analysis (rats killed at 30 min after CSD, brains fresh-frozen) • 5 rats to jugular vein cannulation (CGRP sampling) and dural as well as cortical CGRP immunocytochemistry (rats killed at 15 min after CSD)
Rats were anaethetized with Equithesin (3 ml/kg) and placed in a stereotactic frame. The rectal temperature was maintained at 37.0±1.0° C. with a homeothermic blanket system. A polyethylene catheter was inserted into the femoral artery in order to monitor arterial blood pressure and take blood samples for arterial pH, pO2, pCO2 and glucose. The arterial blood gases were measured with i-STAT portable clinical analyzer (I-STAT), arterial blood pressure monitored with Cardiocap II blood pressure analyzer (datex-Ohmeda, Helsinki, Finland) and blood glucose with standard glucose meter (Arkray, Japan). The measurements were taken 10 min before as well as 5 min after the CSD episode. The skin was opened by a medical incision and retracted laterally. Three skull burr holes were drilled in a row unilaterally. One was placed over the frontal cortex, the second frontoparietally and the third one parietally (FIG. 1). A laser-Doppler flow probe (Oxyflow, Oxford Optronics, UK) to monitor CBF and a non-invasive tungsten electrode for measuring direct current (DC) potential shifts were placed in the frontal and frontoparietal burr holes on the intact dura, respectively. The laser-Doppler flow probe was positioned in an area free of large pial and dural vessels to minimize a large-vessel contribution to the signal. For the DC-potential measurement, a reference electrode was fixed in the neck. CSDs were elicited unilaterally by placing a KCl-soaked (3.0 M) piece of filter paper on the parietal opening for 5 min. The KCl exposure was terminated by flushing the opening with saline and placing a dry piece of filter paper on the opening. The CBF and DC-potentials were monitored continuously starting from 5 minutes before CSD and continuing up to 30 min after the KCl exposure.
All values were calculated as mean±standard deviation (SD) and differences were considered to be statistically significant as the P<0.05 level. Statistical analysis was performed using StatsDirect statistical software. Differences among means were analyzed by using one-way analysis of variance (ANOVA). […]

[2] = test system: Calcitonin gene-related peptide (CGRP); assay: CSD-induced CGRP release in jugular vein blood (CGRP EIA); format: in vivo, rat (Wistar); details: for CGRP release expressed as percent of baseline levels, 10-15 min: 10-15 min after induction of CSD; for CGRP release expressed as percent of baseline levels, 10-15 min / CGRP release expressed as percent of baseline levels, 20-25 min / CGRP release expressed as percent of baseline levels, Baseline: n = 5; for CGRP release expressed as percent of baseline levels, 20-25 min: 20-25 min after induction of CSD; for CGRP release expressed as percent of baseline levels, Baseline: baseline (before CSD)
Description: as §1
Following anesthesia (before CSD), a catheter was placed into the right jugular vein. 0.250 ml of blood was taken through the catheter for baseline measurement. For time course experiments further samples were taken at 10-15 and 20-25 min following initiation of CSD. Samples were stored in prepared Eppendorf tubes containing the protease inhibitors aprotinin (1000 KU, Bayer, Germany) and Pefabloc™ (1 mg/ml, Boehringer Mannheim, Germany), immediately cold centrifuged and stored at −80° C. The samples were acidified with trifluoroacetic acid and centrifuged at 6000 g for 20 min. The supernatant was extracted with Sep-Pak C-18 cartridges (Millipore, Waters, UK). Eluates were concentrated (dried) and dissolved in EIA buffer. CGRP concentrations were detected using a commercial CGRP EIA kit (S-3006, Bachem Distribution GmbH) according to the manufacturer's instructions.
All values were calculated as mean±standard deviation (SD) and differences were considered to be statistically significant as the P<0.05 level. Statistical analysis was performed using StatsDirect statistical software. Differences among means were analyzed by using one-way analysis of variance (ANOVA). Dunnet's post-hoc test was applied for multiple comparisons with a control group.

[3] = rat model of migraine, pre-treatment, 3 doses

Q: What does the source list for `COC[C@@H](NC(C)=O)C(=O)NCc1ccccc1` [SPM 927, (R)-2-acetamide-N-benzyl-3-methoxypropionamide]?
A: Number of DC ([1]; 3 mg/kg i.p. 30 min before CSD episode): 4.2 ± 0.4; Number of DC ([1]; 10 mg/kg i.p. 30 min before CSD episode): 3.3 ± 0.4; Number of DC ([1]; 30 mg/kg i.p. 30 min before CSD episode): 3.5 ± 0.6; Effect on CSD / number of CSD-induced DC-potentials (in words) [1, 3]: reduces; also recorded: significant suppression; CGRP release expressed as percent of baseline levels, 10-15 min ([2]; 3 mg/kg i.p.): 126 ± 45%; CGRP release expressed as percent of baseline levels, 20-25 min ([2]; 3 mg/kg i.p.): 35 ± 7%; CGRP release expressed as percent of baseline levels, Baseline ([2]; 3 mg/kg i.p.): 100 ± 0%; CGRP release expressed as percent of baseline levels, 10-15 min ([2]; 10 mg/kg i.p.): 114 ± 27%; CGRP release expressed as percent of baseline levels, 20-25 min ([2]; 10 mg/kg i.p.): 66 ± 31%; CGRP release expressed as percent of baseline levels, Baseline ([2]; 10 mg/kg i.p.): 100 ± 0%; CGRP release expressed as percent of baseline levels, 10-15 min ([2]; 30 mg/kg i.p.): 92 ± 53%; CGRP release expressed as percent of baseline levels, 20-25 min ([2]; 30 mg/kg i.p.): 71 ± 12%; CGRP release expressed as percent of baseline levels, Baseline ([2]; 30 mg/kg i.p.): 100 ± 0%; Effect on CSD-induced CGRP release / CGRP levels in blood (in words) [2, 3]: reduces; also recorded: significant suppression

Q: Which results are given for `CCCC(CCC)C(=O)O` [Valproic acid, reference compound]?
A: Number of DC ([1]; 250 mg/kg i.p. 30 min before CSD episode): 3.7 ± 0.3; CGRP release expressed as percent of baseline levels, 10-15 min ([2]; 250 mg/kg i.p.): 56 ± 8%; CGRP release expressed as percent of baseline levels, 20-25 min ([2]; 250 mg/kg i.p.): 71 ± 15%; CGRP release expressed as percent of baseline levels, Baseline ([2]; 250 mg/kg i.p.): 100 ± 0%
